Laboratory results from ChEMBL document CHEMBL1153734, “Protoxylocarpins F-H, protolimonoids from seed kernels of Xylocarpus granatum” (J Nat Prod, 2009).
Active and inactive are the calls of the source. The rule behind the calls is not given here.

Experiments:
Type in all cases: functional, cell-based
SW-620 = test: Cytotoxicity against human SW620 cells after 3 days by MTT assay
HepG2 = test: Cytotoxicity against human HepG2 cells after 3 days by MTT assay; conditions: for IC50: HepG2, 72 h
ChaGo = test: (§1) Cytotoxicity against human ChaGo cells after 3 days by MTT assay
BT-474 = test: Cytotoxicity against human BT474 cells after 3 days by MTT assay
KATO III cell = test: Cytotoxicity against human KATO III cells after 3 days by MTT assay
[1] = as §1; conditions: 72 h

SMILES	Activity (SW-620)	Activity (HepG2)	Activity (ChaGo)	Activity (BT-474)	Activity (KATO III cell)	IC50 [1]	IC50 (HepG2)
CC(=O)O[C@@H]1C[C@H]2C(C)(C)C(=O)C=C[C@]2(C)[C@H]2CC[C@]3(C)C(=CC[C@H]3[C@H]3CO[C@@H]([C@H](O)C(C)(C)O)C3)[C@@]21C	inactive	inactive	inactive	inactive	inactive		
CC(=O)OC1OC(C2OC2(C)C)C[C@@H]1[C@H]1CC=C2C3(C)C(O)CC4C(C)(C)C(=O)CC[C@]4(C)[C@H]3CC[C@@]21C (stereo not given in full)	inactive	inactive	inactive	inactive	inactive		
C=C1[C@@H]2CC[C@@]3(C)[C@H](c4ccoc4)OC(=O)C[C@]13O[C@H]1CC(=O)C(C)(C)[C@H](CC(=O)OC)[C@]12C	inactive	inactive	inactive	inactive	inactive		
CC(=O)O[C@@H]1C[C@H]2C(C)(C)C(=O)C=C[C@]2(C)[C@H]2CC[C@]3(C)C(=CC[C@H]3[C@H]3CO[C@@H](C4(O)OC4(C)C)C3)[C@@]21C (stereo not given in full)	inactive	inactive	inactive	inactive	inactive		
COC(=O)CC[C@@H]1[C@@H](C)C(=O)C([C@@H](OC(C)=O)[C@@]2(O)C(=O)CC[C@]3(C)C2=CC(=O)O[C@H]3c2ccoc2)=CC1(C)C [XYLOGRANATIN C]	inactive			inactive	inactive	9.16 µM	
COC(=O)C[C@H]1C(C)(C)[C@@H]2O[C@@]34C[C@@H]2C(=O)[C@]1(C)[C@H]3CC[C@@]1(C)[C@@H](c2ccoc2)OC(=O)C[C@]14O	inactive	inactive	inactive	inactive	inactive		
COC(=O)[C@H](OC(C)=O)[C@H]1[C@]2(C)C[C@]3(O)[C@@](OC(C)=O)([C@H]4O[C@@]5(C)O[C@@]6(CC[C@@]7(C)[C@H](c8ccoc8)OC(=O)C[C@@]7(O)[C@@]46O5)[C@]13C)[C@H]2OC(C)=O	inactive	inactive	inactive	inactive	inactive		
CC(=O)O[C@@H]1C[C@H]2C(C)(C)C(=O)C=C[C@]2(C)[C@H]2CC[C@]3(C)C(=CC[C@H]3[C@@H]3COC(=O)C3)[C@@]21C	inactive	inactive	inactive	inactive	inactive		
CC1(C)C(=O)C=C[C@]2(C)[C@H]3CC[C@@]4(C)[C@H](c5ccoc5)OC(=O)[C@H]5O[C@]54[C@]3(C)[C@H](O)C[C@@H]12 [DEACETYLGEDUNIN]	inactive			inactive	inactive	16 µM	10.3 µM
CC(=O)O[C@@H]1C[C@H]2C(C)(C)C(=O)C=C[C@]2(C)[C@H]2CC[C@]3(C)C(=CC[C@H]3[C@H]3CO[C@@H]([C@@H](O)C(C)(C)O)C3)[C@@]21C	inactive	inactive	inactive	inactive	inactive		
CC1(C)C(=O)C=C[C@]2(C)[C@H]3CC[C@@]4(C)[C@H](c5ccoc5)OC(=O)[C@H]5O[C@]54[C@]3(C)C(=O)C[C@@H]12 [DEACETOXY-7-OXOGEDUNIN]							16.2 µM
COC(=O)C[C@H]1C(C)(C)[C@H](O)[C@@H]2CC3=C4CC(=O)O[C@@H](c5ccoc5)[C@]4(C)CC[C@@H]3[C@@]1(C)C2=O	inactive	inactive	inactive	inactive	inactive		
COC(=O)[C@H](OC(C)=O)[C@H]1[C@]2(C)C[C@]3(O)[C@H]([C@H]2OC(C)=O)[C@H]2O[C@@]4(C)O[C@@]5(CC[C@@]6(C)[C@H](c7ccoc7)OC(=O)C[C@@]6(O)[C@@]25O4)[C@]13C	inactive	inactive	inactive	inactive	inactive		
COC(=O)C[C@H]1C(C)(C)C(=O)[C@@H]2CC3=C4CC(=O)O[C@@H](c5ccoc5)[C@]4(C)CC[C@@H]3[C@@]1(C)C2=O	inactive	inactive	inactive	inactive	inactive		
